One assay has as its system MDA-MB-231. The assay can be described thus: Antiproliferative activity against human MDA-MB-231 cells measured by MTT assay. The format is functional, cell-based.
A further assay has as its system MDA-MB-468. The assay is described as follows: Antiproliferative activity against human MDA-MB-468 cells measured by MTT assay. The assay is classed as functional, cell-based.
The next assay has as its system MCF7. The assay can be described thus: Antiproliferative activity against human MCF7 cells measured by MTT assay. The assay is classed as functional, cell-based.
Assay [1] addresses T1, Extracellular serine/threonine protein kinase FAM20C (Homo sapiens) (UniProt Q8IXL6).
T1 sequence (whole entry): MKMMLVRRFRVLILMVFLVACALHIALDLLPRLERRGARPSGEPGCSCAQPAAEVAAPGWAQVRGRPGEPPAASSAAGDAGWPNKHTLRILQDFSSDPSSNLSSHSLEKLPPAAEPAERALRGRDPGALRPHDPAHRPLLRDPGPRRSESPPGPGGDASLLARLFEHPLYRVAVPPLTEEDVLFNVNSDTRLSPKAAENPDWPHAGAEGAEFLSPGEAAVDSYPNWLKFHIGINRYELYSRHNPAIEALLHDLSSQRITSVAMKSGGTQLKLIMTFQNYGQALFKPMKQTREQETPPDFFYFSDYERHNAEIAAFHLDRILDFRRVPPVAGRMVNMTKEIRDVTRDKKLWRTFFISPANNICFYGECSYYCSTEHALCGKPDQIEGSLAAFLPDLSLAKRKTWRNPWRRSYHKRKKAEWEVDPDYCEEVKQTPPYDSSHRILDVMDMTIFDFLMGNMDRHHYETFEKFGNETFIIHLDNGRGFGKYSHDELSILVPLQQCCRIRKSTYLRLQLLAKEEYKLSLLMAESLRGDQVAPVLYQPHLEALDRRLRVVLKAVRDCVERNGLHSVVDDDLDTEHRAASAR
The assay can be described thus: Inhibition of Fam20C (unknown origin) assessed as reduction in inorganic phosphate release in presence of ATP at 10 uM measured by Malachite green phosphate staining based micro plate reader assay relative to control.

We go through 16 compounds from ChEMBL document CHEMBL4813922, “Discovery of a novel small-molecule inhibitor of Fam20C that induces apoptosis and inhibits migration in triple negative breast cancer” (Eur J Med Chem, 2021).

SMILES strings stand for the structures.

Consider `COc1ccc(Nc2cc(C(F)(F)F)nc(Nc3ccc(NS(=O)(=O)c4ccccc4OC(F)(F)F)cc3)n2)cc1`, for which the IC50 in the assay on MDA-MB-231 was 32.9 µM; with MDA-MB-468 it was above 50 µM; in the assay on MCF7, 14 µM. Further, in assay [1], the inhibition stood at 18%.
The corresponding values for `COc1ccc(Nc2cc(C(F)(F)F)nc(Nc3ccc(NS(=O)(=O)c4ccc(C(F)(F)F)cc4)cc3)n2)cc1` are 23.3 µM, 25.3 µM, 17.3 µM and 19%.
For `O=S(=O)(Nc1ccc(Nc2nc(Nc3ccc(F)cc3)cc(C(F)(F)F)n2)cc1)c1ccc(C(F)(F)F)cc1`, in that order: above 50 µM, above 50 µM, 17.2 µM and 15%.
For `COc1ccc(Nc2ccnc(Nc3ccc(NS(=O)(=O)c4ccc(C)cc4)cc3)n2)cc1`, in that order: 21.2 µM, above 50 µM, above 50 µM and 28%.
Turning to `COc1ccc(Nc2ccc(Nc3nc(C)cc(Nc4ccc(OC)cc4)n3)cc2)cc1`, the IC50 in the assay on MDA-MB-231, in the assay with MDA-MB-468 and with MCF7 was above 50 µM each time. The inhibition in assay [1] amounted to 14%.
On to `COc1ccc(Nc2cc(C(F)(F)F)nc(Nc3ccc(NS(=O)(=O)c4ccccc4Cl)cc3)n2)cc1`, for which the figures for the IC50 with MDA-MB-231, with MDA-MB-468 and in the assay on MCF7 were 43.6 µM, above 50 µM and above 50 µM, respectively. Further, in assay [1], the inhibition stood at 21%.
On to `COc1ccc(Nc2cc(C)nc(Nc3ccc(NS(=O)(=O)c4ccccc4Cl)cc3)n2)cc1`, for which the IC50 in the assay with MDA-MB-231 was 15.3 µM; in the assay with MDA-MB-468, above 50 µM; with MCF7, above 50 µM. For the same compound, in assay [1], the inhibition came out at 40%.
As to `O=S(=O)(Nc1ccc(Nc2nc(Nc3ccc(F)cc3)cc(C(F)(F)F)n2)cc1)c1ccccc1OC(F)(F)F`, the results for the IC50 with MDA-MB-231, in the assay with MDA-MB-468 and in the assay with MCF7 were 20.8 µM, above 50 µM and 16.7 µM, respectively. Further, the inhibition in assay [1] came out at 24%.
`COc1ccc(S(=O)(=O)Nc2ccc(Nc3nccc(-c4ccccc4)n3)cc2)cc1`: the IC50 with MDA-MB-231, with MDA-MB-468 and in the assay on MCF7 was above 50 µM in each case. Besides, the inhibition in assay [1] was 10%.
Take `COc1ccc(Nc2ccnc(Nc3ccc(NS(=O)(=O)c4ccc(C(F)(F)F)cc4)cc3)n2)cc1`: the IC50 in the assay on MDA-MB-231 is 27.2 µM; in the assay on MDA-MB-468, above 50 µM; with MCF7, 34.8 µM. Besides, the inhibition in assay [1] amounted to 18%.
For `Cc1cc(Nc2ccc(F)cc2)nc(Nc2ccc(NS(=O)(=O)c3ccc(C(F)(F)F)cc3)cc2)n1`, in that order: 17.5 µM, 32.3 µM, 18 µM and 24%.
As to `COc1ccc(C(=O)Nc2ccc(Nc3nc(C)cc(Nc4cc(OC)c(OC)c(OC)c4)n3)cc2)cc1`, the IC50 was 7.2 µM in the assay with MDA-MB-231, 3.62 µM in the assay on MDA-MB-468 and above 50 µM in the assay on MCF7. For the same compound, in assay [1], the inhibition worked out at 49%.
For `Cc1cc(Nc2ccc(F)cc2)nc(Nc2ccc(NS(=O)(=O)c3ccccc3OC(F)(F)F)cc2)n1`, in that order: 23.8 µM, 42.2 µM, above 50 µM and 23%.
`COc1cc(Nc2ccnc(Nc3ccc(NS(=O)(=O)c4ccc(C)cc4)cc3)n2)cc(OC)c1OC`: the results for the IC50 with MDA-MB-231, in the assay with MDA-MB-468 and with MCF7 were 17.3 µM, 46.8 µM and above 50 µM, respectively. Moreover, in assay [1], the inhibition amounted to 28%.
For `COc1ccc(Nc2ccnc(Nc3ccc(NS(=O)(=O)c4ccc(OC)cc4)cc3)n2)cc1`, in that order: 6.87 µM, 14.8 µM, 29 µM and 25%.
For `COc1ccc(S(=O)(=O)Nc2ccc(Nc3nc(C)cc(Nc4ccc(OC)c(O)c4)n3)cc2)cc1`, in that order: above 50 µM, above 50 µM, above 50 µM and 11%.
